Reference: patent publication US20260272878A1, “ADAR1 INHIBITORS AND USES THEREOF” (THE WISTAR INSTITUTE OF ANATOMY AND BIOLOGY, priority 2023, published 2026)
Entries after “also recorded” stand apart in the source; their conditions may differ.

Legend:
ADAR1p150 = target: T1, ADAR1p150 (Homo sapiens, UniProt P55265); experiment: In vitro editing assay, ADAR1p150; format: biochemical; conditions: for IC50: ADAR1p150 (not shown)
T1 sequence (P55265 1-1226): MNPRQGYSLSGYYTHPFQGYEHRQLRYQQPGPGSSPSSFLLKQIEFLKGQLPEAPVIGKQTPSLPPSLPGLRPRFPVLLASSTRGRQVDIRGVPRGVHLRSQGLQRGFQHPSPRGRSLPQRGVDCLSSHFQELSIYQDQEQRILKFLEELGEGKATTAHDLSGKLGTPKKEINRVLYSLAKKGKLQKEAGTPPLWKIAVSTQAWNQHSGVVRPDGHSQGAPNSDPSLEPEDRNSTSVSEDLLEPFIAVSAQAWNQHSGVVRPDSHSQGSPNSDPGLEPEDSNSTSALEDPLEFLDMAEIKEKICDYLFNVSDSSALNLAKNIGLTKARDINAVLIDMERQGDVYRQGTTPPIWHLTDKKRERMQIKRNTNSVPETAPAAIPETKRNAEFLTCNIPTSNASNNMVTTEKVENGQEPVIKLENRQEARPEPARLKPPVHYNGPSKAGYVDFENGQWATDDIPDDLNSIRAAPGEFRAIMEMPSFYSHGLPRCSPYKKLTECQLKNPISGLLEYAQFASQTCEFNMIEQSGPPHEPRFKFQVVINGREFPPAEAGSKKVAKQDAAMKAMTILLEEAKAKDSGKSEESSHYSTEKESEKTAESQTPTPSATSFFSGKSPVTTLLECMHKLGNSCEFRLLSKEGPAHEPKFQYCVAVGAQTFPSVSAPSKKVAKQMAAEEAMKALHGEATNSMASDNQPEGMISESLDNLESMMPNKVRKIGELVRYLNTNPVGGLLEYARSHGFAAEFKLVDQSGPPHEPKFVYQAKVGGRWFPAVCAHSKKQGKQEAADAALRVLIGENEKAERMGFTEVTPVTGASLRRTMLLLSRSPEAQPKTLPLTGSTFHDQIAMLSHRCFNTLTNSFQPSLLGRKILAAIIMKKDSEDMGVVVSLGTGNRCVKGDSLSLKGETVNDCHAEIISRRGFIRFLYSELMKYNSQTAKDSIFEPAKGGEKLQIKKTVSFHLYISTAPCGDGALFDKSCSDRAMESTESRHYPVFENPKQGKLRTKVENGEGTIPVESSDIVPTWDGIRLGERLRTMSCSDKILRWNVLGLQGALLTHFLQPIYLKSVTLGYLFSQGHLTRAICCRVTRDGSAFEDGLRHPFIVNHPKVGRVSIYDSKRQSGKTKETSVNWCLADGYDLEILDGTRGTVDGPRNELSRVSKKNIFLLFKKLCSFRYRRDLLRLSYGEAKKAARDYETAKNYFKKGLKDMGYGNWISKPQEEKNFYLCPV
Experimental: The in vitro editing reaction mixture, containing 5 nM of telomere RNA:RNA duplex substrates and 75 nM of HAT-ADAR1p110-WT, FLAG-ADAR1p110-WT, or HA-ADAR1p110-EAA protein, was incubated at 37° C. for 2 h in in vitro editing buffer I (20 mM HEPES-KOH PH 7.5, 100 mM NaCl, 0.01% NP-40, 5% glycerol, 1 mM DTT). For editing of RNA:DNA hybrid substrates, in vitro editing buffer II (20 mM HEPES-KOH PH 7.5, 20 mM NaCl, 0.01% NP-40, 5% glycerol, 1 mM DTT) was used. Edited RNA or DNA strands were purified using Dynabeads MyOne Streptavidin C1 (Thermo Fisher Scientific). To remove opposite RNA or DNA strands, rNase H (NEB) or TURBO dNase (Thermo Fisher Scientific) was used, respectively. For sequencing of edited substrates, reverse transcription-PCR was carried out for RNA strands, while PCR was carried out for DNA strands. RT reactions were carried out using SuperScript III Reverse Transcriptase (Thermo Fisher Scientific), and PCR reactions were performed using Platinum Taq DNA polymerase (Thermo Fisher Scientific). PCR products were sequenced using a specific sequencing primer, and the ratio of A and G peaks in the chromatograms were analyzed by CodonCode Aligner (CodonCode Corporation).
Seven additional analogs of ADAR1i-13 (FIG. 5A) were synthesized to determine structural characteristics required for ADAR1 editing inhibitory activity. […] In vitro editing IC50 values of ADAR1i-13, ADAR1i-120, and ADAR1i-124 (FIG. 5A) were similar, in the ~10-20 μM range, for both ADAR1p110 (FIG. 5A) and ADAR1p150 (not shown).

YUMM1.7 cells = experiment: Immunostaining (MAb J2) of unedited dsRNA fibers; format: cell-based, mouse; conditions: for Unedited dsRNA fiber structures in cells: immunostaining with MAb J2, YUMM1.7 cells
Description: FIGS. 7A-7C show analysis of ADAR1i-13 and analogs. […] IC50 values determined by dose-dependent in vitro editing assay are shown for ADAR1 inhibition positive compounds. […] Dumbbell-shaped dsRNA has been reported to form Z-RNA conformation and act as a strong IFN signaling activation triggers. ADAR1p150 mediated A-to-I editing suppresses Z-RNA structure transition and activation of IFN signaling.
It has been reported that the suppression ADAR1 editing activity results in binding of MDA5 to unedited dsRNAs, oligomerization of MDA5-dsRNA complexes, and formation of fiber-like structures (21, 44). These dsRNA fiber structures were detected in cells treated with ADAR1 inhibition active compounds, ADAR1i-13, ADAR1i-120, and ADAR1i-124, but not detected in cells treated with ADAR1 inhibition negative compounds (FIG. 7A).

[1] = tested on: HeLa non-ALT cancer cells; experiment: Cancer cell killing / viability (Apo Tox-Glo), HeLa; format: cell-based, human; conditions: for Killing of HeLa cells: result in words
Experimental: FIGS. 8A-8C show analysis of ADAR1i-124 effects in cancer cells. […] Viability was examined using the Apo Tox-Glo assay system. Control, 0.3% DMSO. Data: mean±SD (n=3). Significant differences identified by two-tailed Student's t-tests: *P<0.05, n.s., not significant. (FIG. 8B) Western blotting analysis of HeLa cells treated with ADAR1i-124 (10 μM).
FIGS. 9A-9C show dose-dependent killing of cancer cells and activation of IFN signaling. […] YUMM1.7 (FIG. 9B) and HGS2 cells (FIG. 9C) were treated with ADAR1i-124 at 10 μM (12 hrs). RNA samples were analyzed by qRT-PCR to monitor ISG expression levels. Data: mean±SD (n=3). Significant differences were identified by two-tailed Student's t-tests: ***P<0.001.
Dose-dependent selective killing of telomerase reactivated cancer cells was determined (FIG. 9A).

Structure (SMILES) | IC50 (ADAR1p150) | Unedited dsRNA fiber structures in cells (YUMM1.7 cells) | Killing of HeLa cells [1] | Inhibition of ADAR1p150 (ADAR1p150; result in words) | RNase III sensitivity of induced dsRNA fibers (YUMM1.7 cells; RNase III treatment) | Viability of HeLa cells ([1]; 10 μM, Apo Tox-Glo, control 0.3% DMSO) | IC50 ([1]; Homo sapiens, HeLa, read-out: IC50 for selective killing of HeLa cells)
N#Cc1ccc(NC(=O)c2sc3ccccc3c2Cl)cc1 [ADAR1i-13, 3-chloro-N-(4-cyanophenyl)-1-benzothiophene-2-carboxamide] | 10 to 20 µM | detected; also recorded: unedited dsRNA fibers induced | killed selectively |  |  |  | 
N#Cc1ccccc1NC(=O)c1sc2ccccc2c1Cl [ADAR1i-120] | 10 to 20 µM | detected; also recorded: unedited dsRNA fibers induced | killed selectively |  |  |  | 
N#Cc1ccc(NC(=O)c2c(Cl)c3ccccc3n2CO)cc1 [ADAR1i-124] | 10 to 20 µM | detected; also recorded: unedited dsRNA fibers induced | killed selectively; also recorded: dose-dependently killed | inhibited both ADAR1p150 and ADAR1p-110 | abolished by RNase III treatment; also recorded: sensitive to RNase III treatment | selectively reduced viability | ~0.4 µM
